According to ChEMBL document CHEMBL1201862, “PubChem BioAssay data set” (2004):
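Where inhibition never reached the appropriate level, the endpoint shown equals the highest concentration tested. Otherwise, values were interpolated linearly from a five-concentration, 48-hour dose response in 96-well plates. Abbreviation: GI50, concentration required for 50% inhibition of growth.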 Calls of active or inactive are those of the source. Cut-off read from the data, not from the text of the source: active = GI50 up to about 1.1 µM and inactive = higher.

What was measured:
Assay in all cases: inhibition of tumour cell growth, NCI panel, 48 h
[1] = tested on: 786-0
[2] = tested on: A549
[3] = tested on: ACHN
[4] = tested on: BT-549
[5] = tested on: CAKI-1
[6] = tested on: CCRF-CEM
[7] = tested on: COLO 205
[8] = tested on: DU-145
[9] = tested on: EKVX
[10] = tested on: HCT-116
[11] = tested on: HCT-15
[12] = tested on: HL-60
[13] = tested on: HOP-62
[14] = tested on: HT-29
[15] = tested on: IGROV-1
[16] = tested on: K562
[17] = tested on: KM12
[18] = tested on: LOX IMVI
[19] = tested on: M14
[20] = tested on: MDA-MB-231
[21] = tested on: MDA-MB-435
[22] = tested on: MDA-N
[23] = tested on: MOLT-4
[24] = tested on: Malme-3M
[25] = tested on: NCI-H226
[26] = tested on: NCI-H23
[27] = tested on: NCI-H460
[28] = tested on: NCI-H522
[29] = tested on: NCI/ADR-RES
[30] = tested on: OVCAR-3
[31] = tested on: OVCAR-4
[32] = tested on: OVCAR-5
[33] = tested on: OVCAR-8
[34] = tested on: PC-3
[35] = tested on: RXF 393
[36] = tested on: SF-268
[37] = tested on: SF-295
[38] = tested on: SF-539
[39] = tested on: SK-MEL-28
[40] = tested on: SK-MEL-2
[41] = tested on: SK-MEL-5
[42] = tested on: SK-OV-3
[43] = tested on: SN12C
[44] = tested on: SNB-19
[45] = tested on: SNB-75
[46] = tested on: SW-620
[47] = tested on: T47D
[48] = tested on: TK-10
[49] = tested on: U-251
[50] = tested on: UACC-257
[51] = tested on: UACC-62

In the case of `COC(=O)C1=C(O)C(C(=O)OC)[C@]2(O)[C@H](C(=O)OC)[C@H]1C[C@@H](c1ccc([N+](=O)[O-])cc1)[C@H]2C(=O)OC` (stereo partly specified), the GI50 [1] is reported as 14.9 µM (inactive), the GI50 [2] is reported as 21.3 µM (inactive) and the GI50 [3] is reported as 18.1 µM (inactive). For the same molecule, the GI50 [4] was 15.9 µM (inactive), the GI50 [5] was 28.6 µM (inactive) and the GI50 [6] was 18 µM (inactive). For the same molecule, the GI50 [7] was 25 µM (inactive), the GI50 [8] was 34.7 µM (inactive) and the GI50 [9] was 21.5 µM (inactive). The GI50 [10] was 14.7 µM (inactive), the GI50 [11] was 12.7 µM and the GI50 [12] was 14.3 µM (inactive). For the same molecule, the GI50 [13] was 34.6 µM (inactive), the GI50 [14] was 22.6 µM (inactive) and the GI50 [15] was 12.8 µM (inactive). For the same molecule, the GI50 [16] was 10.2 µM (inactive), the GI50 [17] was 28 µM (inactive) and the GI50 [18] was 13 µM (inactive). The GI50 [19] was 15.7 µM (inactive), the GI50 [20] was 24.6 µM (inactive) and the GI50 [21] was 11 µM (inactive). For the same molecule, the GI50 [22] was 7.91 µM (inactive), the GI50 [23] was 8.09 µM (inactive) and the GI50 [24] was 3.46 µM (inactive). For the same molecule, the GI50 [25] was 24.9 µM (inactive), the GI50 [26] was 13.2 µM (inactive) and the GI50 [27] was 26.4 µM (inactive). The GI50 [28] was 2.46 µM (inactive), the GI50 [29] was 16.4 µM (inactive) and the GI50 [30] was 25.1 µM (inactive). For the same molecule, the GI50 [31] was 34.8 µM (inactive), the GI50 [32] was 25.2 µM (inactive) and the GI50 [33] was 17.6 µM (inactive). The GI50 [34] was 13.9 µM (inactive), the GI50 [35] was 14.7 µM (inactive) and the GI50 [36] was 16.9 µM (inactive). For the same molecule, the GI50 [37] was 28.5 µM (inactive), the GI50 [38] was 30.5 µM (inactive) and the GI50 [39] was 16.2 µM (inactive). The GI50 [40] was 18.4 µM (inactive), the GI50 [41] was 15.3 µM (inactive) and the GI50 [42] was 27.8 µM (inactive). The GI50 [43] was 18.1 µM (inactive), the GI50 [44] was 19 µM (inactive) and the GI50 [45] was 42.3 µM (inactive). For the same molecule, the GI50 [46] was 16.6 µM (inactive), the GI50 [47] was 38.2 µM (inactive) and the GI50 [48] was 74.1 µM (inactive). For the same molecule, the GI50 [49] was 11.5 µM (inactive), the GI50 [50] was 34.1 µM (inactive) and the GI50 [51] was 12.4 µM (inactive).
